Measured values: patent publication US12643859B2, “Pyridyl oxycarboxylic acid oxime derivative and preparation method therefor, weeding composition and application thereof” (Qingdao Kingagroot Chemical Compound Co., Ltd., priority 2018, dated 2026)

Tested on: Monocotyledonous and dicotyledonous weed seeds and main crop seeds
Test: Post-emergence test experiment (Table 3, 1000 g a.i./ha)
Type: in vivo
Settings: 3 weeks in greenhouse, fresh weight inhibition
Experimental: The above described growth inhibition rate is fresh weight inhibition rate.
Post-emergence test experiment: Monocotyledonous and dicotyledonous weed seeds and main crop seeds (i. e. wheat, corn, rice, soybean, cotton, oilseed, millet and sorghum.) were put into a plastic pot loaded with soil. Then covered with 0.5-2 cm soil, the seeds were allowed to grow in good greenhouse environment. The test plants were treated at 2-3 leaf stage 2 weeks after sowing. The test compounds of the invention were dissolved with acetone respectively, then added with tween-80, and using 1.5 liters per hectare of an emulsible concentrate of methyl oleate as a synergist, and diluted by certain amount of water to certain concentration. The solution was sprayed to the plants with a sprayer. Then the plants were cultured for 3 weeks in the greenhouse, and the experiment result of weed controlling effect was listed in tables 3-4.

In the case of CCc1cccc(C(Cl)=NOC(=O)C(C)Oc2nc(F)c(Cl)c(N)c2Cl)c1 (stereo not shown) [Compound 85], the “Activity level (growth inhibition rate) Digitaria sanguinalis” value is reported as 5 (Level 5: the growth inhibition rate is greater than 85%), the “Activity level (growth inhibition rate) Echinochloa crusgalli” value is reported as 5 (Level 5: the growth inhibition rate is greater than 85%) and the “Activity level (growth inhibition rate) Galium spurium” value is reported as 5 (Level 5: the growth inhibition rate is greater than 85%). The “Activity level (growth inhibition rate) Leptochloa chinensis” value was 5 (Level 5: the growth inhibition rate is greater than 85%), the “Activity level (growth inhibition rate) Monochoria Vaginalis” value was 5 (Level 5: the growth inhibition rate is greater than 85%) and the “Activity level (growth inhibition rate) Murdannia triquetra” value was 5 (Level 5: the growth inhibition rate is greater than 85%). The “Activity level (growth inhibition rate) Setaria viridis” value was 5 (Level 5: the growth inhibition rate is greater than 85%).
With CC(Oc1nc(F)c(Cl)c(N)c1Cl)C(=O)ON=C(c1ccc(Cl)cc1)c1cccc(F)c1 (stereo not shown) [Compound 82] the “Activity level (growth inhibition rate) Digitaria sanguinalis” value was 5 (Level 5: the growth inhibition rate is greater than 85%), the “Activity level (growth inhibition rate) Echinochloa crusgalli” value was 5 (Level 5: the growth inhibition rate is greater than 85%) and the “Activity level (growth inhibition rate) Galium spurium” value was 5 (Level 5: the growth inhibition rate is greater than 85%). The “Activity level (growth inhibition rate) Leptochloa chinensis” value was 5 (Level 5: the growth inhibition rate is greater than 85%), the “Activity level (growth inhibition rate) Monochoria Vaginalis” value was 5 (Level 5: the growth inhibition rate is greater than 85%) and the “Activity level (growth inhibition rate) Murdannia triquetra” value was 5 (Level 5: the growth inhibition rate is greater than 85%). The “Activity level (growth inhibition rate) Setaria viridis” value was 5 (Level 5: the growth inhibition rate is greater than 85%).
In the case of CC(Oc1nc(F)c(Cl)c(N)c1Cl)C(=O)ON=C(C(=O)NCCc1ccccc1)c1ccccc1 (stereo not shown) [Compound 105], the “Activity level (growth inhibition rate) Digitaria sanguinalis” value is reported as 5 (Level 5: the growth inhibition rate is greater than 85%), the “Activity level (growth inhibition rate) Echinochloa crusgalli” value is reported as 5 (Level 5: the growth inhibition rate is greater than 85%) and the “Activity level (growth inhibition rate) Galium spurium” value is reported as 5 (Level 5: the growth inhibition rate is greater than 85%). The “Activity level (growth inhibition rate) Leptochloa chinensis” value was 5 (Level 5: the growth inhibition rate is greater than 85%), the “Activity level (growth inhibition rate) Monochoria Vaginalis” value was 5 (Level 5: the growth inhibition rate is greater than 85%) and the “Activity level (growth inhibition rate) Murdannia triquetra” value was 5 (Level 5: the growth inhibition rate is greater than 85%). For the same molecule, the “Activity level (growth inhibition rate) Setaria viridis” value was 5 (Level 5: the growth inhibition rate is greater than 85%).
With CC(Oc1nc(F)c(Cl)c(N)c1Cl)C(=O)ON=C(Cc1ccccc1)c1ccccc1N (stereo not shown) [Compound 93] the “Activity level (growth inhibition rate) Digitaria sanguinalis” value was 5 (Level 5: the growth inhibition rate is greater than 85%), the “Activity level (growth inhibition rate) Echinochloa crusgalli” value was 5 (Level 5: the growth inhibition rate is greater than 85%) and the “Activity level (growth inhibition rate) Galium spurium” value was 5 (Level 5: the growth inhibition rate is greater than 85%). For the same molecule, the “Activity level (growth inhibition rate) Leptochloa chinensis” value was 5 (Level 5: the growth inhibition rate is greater than 85%), the “Activity level (growth inhibition rate) Monochoria Vaginalis” value was 5 (Level 5: the growth inhibition rate is greater than 85%) and the “Activity level (growth inhibition rate) Murdannia triquetra” value was 5 (Level 5: the growth inhibition rate is greater than 85%). The “Activity level (growth inhibition rate) Setaria viridis” value was 5 (Level 5: the growth inhibition rate is greater than 85%).
In the case of CCCC(C)=NOC(=O)C(Oc1nc(F)c(Cl)c(N)c1Cl)C1CC1 (stereo not shown) [Compound 28], the “Activity level (growth inhibition rate) Galium spurium” value is reported as 5 (Level 5: the growth inhibition rate is greater than 85%), the “Activity level (growth inhibition rate) Monochoria Vaginalis” value is reported as 5 (Level 5: the growth inhibition rate is greater than 85%) and the “Activity level (growth inhibition rate) Murdannia triquetra” value is reported as 5 (Level 5: the growth inhibition rate is greater than 85%).
